Experimental data published in patent US12661384B2, “Methods for inducing cell division of postmitotic cells” (priority 2015, dated 2026).

Tested on: Human embryonic stem cell-derived cardiomyocytes
Assay: Screen of factor cocktails: PHH3 staining and total nuclei
Format: cell-based
Protocol: To determine an optimal cocktail of factors for inducing cell proliferation and/or cell cycle reentry of human postmitotic cardiomyocytes, combinations of factors were screened. […] Cells were treated with combinations of CDK1AF, CDK4, CCNB1, CCND1, AURKB or GFP control adenovirus, with or without combinations of TGF-βi (SB431542, “SB”), a […] (MK1775, “MK”), and IGF1. Analysis was performed to identify cocktails of factors that increased the number of cells undergoing mitosis as assessed by increased phospho-histone H3 staining at 4-, 8-, and 12-days after treatment with factor cocktails. FIG. 10, panel A. Analysis was also performed to identify which cocktails of factors had the highest cell survival as assessed by the increase in total number of nuclei. FIG. 10, panel B.

SMILES	replacement of factors in the cocktail (activation of CDK1 with small molecule)	cell survival (total number of nuclei) (4, 8 and 12 days after treatment)
C=CCn1c(=O)c2cnc(Nc3ccc(N4CCN(C)CC4)cc3)nc2n1-c1cccc(C(C)(C)O)n1 [MK1775]	could replace CDK1 and CCNB1 from the cocktail	
NC(=O)c1ccc(-c2nc(-c3ccc4c(c3)OCO4)c(-c3ccccn3)[nH]2)cc1 [SB431542]		enhanced survival
